According to article PMC4766415 (Nature Communications, 2016):

Columns and labels:
[1] = cited from earlier work
TTR tetramer = test system: T1, TTR tetramer; assay: TTR stabilization after oral administration in humans (immunoturbidity, urea); format: in vivo, human; details: for FOI (TTR tetramer after 48 h urea/TTR tetramer at time 0): 4.8 M urea
T1 construct: Plasma TTR was then immunoprecipitated; from tissue; host or cells: human plasma
Experimental: TTR stabilization in vivo was measured using an immunoturbidimetric assay as in Fig. 4c. The fraction of initial tetramer concentration (FOI) was determined in triplicate for each sample (FOI=TTR tetramer after 48 h urea treatment/TTR tetramer at time 0 in the presence of urea).
For TTR stabilization analysis, frozen plasma samples were thawed on ice. Samples were then mixed with a 8 M urea solution (in 40 mM sodium phosphate pH 7.4 and 80 mM KCl) to a final urea concentration of 4.8 M. One aliquot was taken immediately after adding urea (time 0) and the rest were incubated for 48 h at controlled RT conditions. After the incubation time points (0 or 48 h), TTR was crosslinked with 40 mM glutaraldehyde (2.5 M stock solution). The samples were quickly vortexed and incubated for 4 min at RT. Then, NaBH4 was added to a final concentration of 48 mM to quench the reaction. Samples were transferred to a measuring tube and read by immunoturbidity after 5 min at RT. Immunoturbidity was measured in a Beckman Coulter AU680 ISE instrument (Beckman Coulter), using the Olympus OSR6175 reagent and calibrator ODR3029 (Olympus) according to the manufacturer's instructions. Analysis was performed in triplicates. Informed consent was obtained from all subjects and the protocol was approved by the Ethics Committee of Hospital Vall d'Hebron (Barcelona).

[2] = test system: T2, tetrameric TTR in human plasma; assay: Ex vivo plasma TTR stability by immunoturbidity after urea denaturation; format: biochemical; details: 4.8 M urea, 48 h; pooled plasma of healthy volunteers
T2 construct: Plasma TTR was then immunoprecipitated; from tissue; host or cells: human plasma
From the text: Stabilization of plasma TTR under physiological conditions was confirmed using an immunoturbidity assay[29] (Fig. 4c). […] After urea treatment, samples were crosslinked with glutaraldehyde and the concentration of TTR determined by immunoturbidity. Treatment with urea and glutaraldehyde decreases immunoturbidity signal due to the extensive modification of denatured TTR monomers by glutaraldehyde, hampering antibody recognition. As TTR denaturation is preceded by tetramer dissociation, the signal roughly correlates with tetramer stability.
A pool of lithium-heparin plasma samples from healthy volunteers stored at −80 °C was thawed on ice. Partially clotted particles were removed by spinning the samples for 2 min at 10,000g. […] Addition volume was limited to maximum 1.5% (v/v) of sample. A control in which DMSO vehicle was added was included in the experimental design. Samples were then mixed with a urea solution (8 M in 50 mM potassium phosphate pH 7.0, 100 mM NaCl, 1 mM dithiothreitol, 1 mM EDTA) to a final urea concentration of 4.8 M, and incubated for various time points at controlled RT conditions. […] Samples were transferred to a measuring tube and read by immunoturbidity after 5 min at RT. Immunoturbidity was measured in a Siemens Automate Dimension EXL200 instrument, using the Siemens Prealbumin (PALB) reagent and calibrator according to the manufacturer's instructions. […]

A25T-TTR [3] = assay: A25T-TTR aggregation inhibition, turbidity, pH 5.0; details: four molar equivalents (15 μM); A25T-TTR 3.6 μM; pH 5.0, 37 °C, 22 h
V122I-TTR = V122I-TTR (Homo sapiens, UniProt P02766, V142I); assay: Isothermal titration calorimetry, V122I-TTR
L55P-TTR = test system: T3, L55P-TTR; assay: Dot-blot filter assay of L55P-TTR aggregation secreted by RN22 cells; format: cell-based, human; details: 1 μM in the medium
T3 construct: TTR is composed of four identical 127 amino-acid residue β-sheet-rich subunits; expressed in transfected cells; host or cells: rat Schwannoma RN22 cells, metallothionein promoter, ZnSO4 induction
Experimental: The extent of extracellular L55P-TTR aggregation was monitored by a filter trap assay followed by TTR immunodetection.
The rat Schwannoma cell line RN22 stably co-transfected with TTR L55P cDNA under the control of the metallothionein promoter was used to test the inhibitors of TTR aggregation as in ref. [51]. […] TTR in the medium was quantified by ELISA, and the volume of medium corresponding to 500 ng of TTR was applied on to a 0.2-μm pore cellulose acetate membrane filter (Schleicher and Schuell) using a manifold system (Gibco BRL) to separate soluble proteins from aggregates. […] Detection was performed with ECL (GE Healthcare). Dot blot quantification was performed using the ImageQuant program. The percentage of aggregation inhibition was calculated as 100 × ((Control—Treated)/Control). Experiments were repeated three times in triplicate.

A25T-TTR [4] = test system: T4, A25T-TTR; assay: A25T-TTR sedimentation assay (total protein precipitation); format: biochemical, human; details: four molar equivalents (15 μM); pH 5.0, 37 °C, 22 h
T4 construct: TTR is composed of four identical 127 amino-acid residue β-sheet-rich subunits; made in house; host or cells: Escherichia coli BL21(DE3), pET expression system
Experimental: TTR aggregation can also be measured by sedimentation using centrifugation. […] TTR aggregation induction was performed as described above. […] The supernatant was carefully removed, and 400 μl of Guanidine (8 M) was added to each sample and subsequently incubated for 1 h to unfold the aggregated TTR. The amount of resolubilized TTR was measured by absorbance at 280 nm. The percentage of TTR precipitated was calculated with respect to total (soluble) TTR at time 0. […]
aggregation as measured by total protein precipitation. […]
aggregation conditions (pH 4.4 and 37°C) for 72 hours. The samples were then centrifuged at 20,000 x g for 1 h at 4 °C and the supernatants (soluble protein) were carefully removed. The precipitated TTR from each sample was resolubilized by addition of 8 M guanidine solution followed by 1 h incubation at RT. TTR concentration was measured by spectroscopy at 280 nm and total amount of resolubilized TTR was calculated. The data is presented as % insoluble […]
was performed for A25T-TTR at pH 5.0 and 37°C for 22 hours . […]

AC16 cells = assay: TTR-induced cytotoxicity in AC16 cells, resazurin reduction assay; format: cell-based, human; details: 16 μM compound, 8 μM TTR; 24 h
From the text: Error bars indicate s.e.m. […] Error bars indicate s.e.m. (n=4). […] Error bars indicate s.e.m. (n=3).

Y78F-TTR = Y78F-TTR (Homo sapiens, UniProt P02766, Y98F); assay: Y78F-TTR aggregation inhibition, turbidity at 340 nm, pH 4.2
[5] = two identical and independent binding sites

For Cc1ccc(C(=O)c2cc(O)c(O)c([N+](=O)[O-])c2)cc1 [tolcapone], the “blood–brain barrier crossing” value [1] is given as “able to cross the blood–brain barrier”, the “FOI (TTR tetramer after 48 h urea/TTR tetramer at time 0)” value (TTR tetramer; HV1, 200 mg oral, plasma 2 h after dose) is given as 0.78±0.04 and the “FOI (TTR tetramer after 48 h urea/TTR tetramer at time 0)” value (TTR tetramer; HV2, 2 × 200 mg oral, plasma 2 h after last dose) is given as 0.98±0.02. The TTR stabilization (TTR tetramer; single dose of 200 mg, plasma 13.6 μM at Tmax) was 359%, the “stabilization of plasma TTR against urea denaturation” value [2] was “stabilized TTR in a dose-responsive manner” and the “reduction of A25T-TTR aggregation (turbidity, Fig. 1d)” value (A25T-TTR [3]) was 40%. The TΔs binding entropy (V122I-TTR; called unfavourable) was 1.6 kcal/mol, the “Δh binding enthalpy per site” value (V122I-TTR; [5]) was -11.5 kcal/mol and the β1 association constant (V122I-TTR; [5]) was 1.8e+07 M⁻¹. For the same compound, the “reduction of L55P-TTR aggregation compared with untreated cells” value (L55P-TTR) was ~90%, the “reduction of A25T-TTR aggregation (sedimentation, Supplementary Fig. 1b)” value (A25T-TTR [4]) was 50% and the “effect on WT-TTR and V122I-TTR induced reduction in cell viability” value (AC16 cells) was “rescued this toxic effect”. For the same compound, the “RA (%): percent reduction of TTR aggregation rate at high inhibitor concentration” value (Y78F-TTR) was 89.13%.
